Patent US20190290728A1, “METHODS RELATED TO BREAKING T CELL EXHAUSTION” (CHILDREN'S MEDICAL CENTER CORPORATION, priority 2016, published 2019)

Tested on: Jurkat cells expressing TMEM16F-RFP
Experiment: TIRF live imaging of TMEM16F-positive vesicle movement at the TCR activation site
Assay type: cell-based
Conditions: Jurkat cells pretreated with 1 μM inhibitor for 30 min, stimulated on αCD3-coated coverslips, TIRF microscopy (FIGS. 7D, 7E)
Source text: TMEM16F is recruited to the immunological synapse and resides in late endosomes. To elucidate the molecular mechanism how TMEM16F controls T cell activation, its cellular localization and function were tracked. To this end, T cells transduced with fluorescent TMEM16F were cocultured with antigen-presenting B cells. […] Of note, TMEM16F appeared mainly in intracellular structures instead of the plasma membrane (FIG. 7A). […] In order to test the mechanics of TMEM16F-positive vesicle movement, TIRF live imaging was performed while modulating the functions of the cytoskeleton. […] By contrast, treatment with nocodazole that disrupts the microtubule network reduced migration of TMEM16F vesicles, indicating the movement of TMEM16F was largely mediated by microtubules but not actin (FIGS. 7D and 7E).
TIRF Microscopy. Sample preparation for TIRF microscopy was performed as previously reported with minor modifications (Bunnell et al., 2003). […]
Image Processing. […] The number of TMEM16F-positive spots was plotted using Prism 6.0™ Quantifications of LBPA-positive vesicles, LAT-GFP, and SH2-ZAP70-mCherry were done similarly. Intensity of SH2-ZAP70-mCherry was determined using intensity vs. time plug-in. For the colocalization of TMEM16F and Rab proteins, fluorescence intensity for each protein was measured on a line manually drawn along TMEM16F-positive vesicles, and values (pixel) were plotted. […]

SMILES	recruitment of TMEM16F to the T cell activation site / migration of TMEM16F vesicles
Cc1ccc2c(c1)C(=O)C1(O)CCN(c3ccccc3)C1=N2 (centres unmarked) [blebbistatin]	did not alter
COC(=O)Nc1nc2ccc(C(=O)c3cccs3)cc2[nH]1 [nocodazole]	reduced
